Results reported in publication PMC5266694, “Identification of Key Residues in the NisK Sensor Region for Nisin Biosynthesis Regulation” (Frontiers in Microbiology, 2017).
Where no end group is shown, it is not given here.

Experiments:
[1] = system: NisK; assay: Far-Western blotting, b-nisin binding to NisK; parameters: species or system Lactococcus lactis; conditions: membrane proteins of L. lactis MG1363 RKNlacZ, SDS-PAGE, PVDF, denatured and renatured; biotin-labelled nisin, HRP-streptavidin detection
Description: (§1) Lactococcus lactis MG1363 RKNlacZ mutant cells were harvested from 500 ml broth when OD600 reached 0.6–0.7, washed with PBS buffer (pH 7.4) once and resuspended in 20 ml PBS buffer. After lysing by sonication, cells were centrifuged at 6,000 g for 1 h to remove intact cells. The supernatant was ultra-centrifuged at 120,000 g for 2 h to separate soluble (cytoplasmic fraction) and insoluble (cell membrane fraction) proteins.
Nisin was labeled by biotin according to the method shown by ([Koteva et al., 2010]) in Beijing Biosynthesis Biotechnology Co., Ltd.. Briefly, nisin peptide was resolved by NaHCO3 (0.1 M, pH = 9.0) and incubated with biotin. Nisin labeled with biotin was purified by High Performance Liquid Chromatography and was named as b-nisin. The insoluble (cell membrane fraction) proteins were separated from L. lactis MG1363 RKNlacZ mutant cells. Far-Western blotting assays were performed using a modified protocol as described by ([Wu Y. et al., 2007]). Briefly, the insoluble proteins were firstly separated by SDS-PAGE, and transferred to a PVDF membrane as in a standard Western blotting. The proteins in the membrane were then denatured and renatured. […] The horseradish peroxidase (HRP) conjugated streptavidin was used as the secondary antibody, and the lanes indicating b-nisin binding to NisK or NisK mutants were detected by photographic film. […]

[2] = system: NisK mutant 69–73A5; assay: Far-Western blotting, b-nisin binding to NisK mutant; parameters: species or system Lactococcus lactis; conditions: membrane protein of strain 69–73A5; biotin-labelled nisin, HRP-streptavidin
Description: as §1
(§2) Nisin was labeled by biotin according to the method shown by ([Koteva et al., 2010]) in Beijing Biosynthesis Biotechnology Co., Ltd.. Briefly, nisin peptide was resolved by NaHCO3 (0.1 M, pH = 9.0) and incubated with biotin. Nisin labeled with biotin was purified by High Performance Liquid Chromatography and was named as b-nisin. The insoluble (cell membrane fraction) proteins were separated from L. lactis MG1363 RKNlacZ mutant cells. Far-Western blotting assays were performed using a modified protocol as described by ([Wu Y. et al., 2007]). Briefly, the insoluble proteins were firstly separated by SDS-PAGE, and transferred to a PVDF membrane as in a standard Western blotting. The proteins in the membrane were then denatured and renatured. The membrane is then blocked and probed with b-nisin. The horseradish peroxidase (HRP) conjugated streptavidin was used as the secondary antibody, and the lanes indicating b-nisin binding to NisK or NisK mutants were detected by photographic film.
(§3) In order to clarify whether the important residues in NisK affected the interaction between nisin and NisK, the membrane proteins from L. lactis MG1363 RKNlacZ strain and the mutant strain M66A, D72A, Y113A, F133A, 69–73A5, and 74–76A3 were extracted. Nisin was labeled by biotin, and the modified product was named by b-nisin. The interaction between b-nisin and membrane proteins was studied by far-Western blotting assay.

[3] = system: NisK mutant 74–76A3; assay: as above; parameters: species or system Lactococcus lactis; conditions: membrane protein of strain 74–76A3; biotin-labelled nisin, HRP-streptavidin
Description: as §1, §2, §3

[4] = system: NisK mutant D72A; assay: as above; parameters: species or system Lactococcus lactis; conditions: membrane protein of strain D72A; biotin-labelled nisin, HRP-streptavidin
Description: as §1, §2, §3

[5] = system: NisK mutant F133A; assay: as above; parameters: species or system Lactococcus lactis; conditions: membrane protein of strain F133A; biotin-labelled nisin, HRP-streptavidin
Description: as §1, §2, §3

[6] = system: NisK mutant M66A; assay: as above; parameters: species or system Lactococcus lactis; conditions: membrane protein of strain M66A; biotin-labelled nisin, HRP-streptavidin
Description: as §1, §2, §3

[7] = system: NisK mutant Y113A; assay: as above; parameters: species or system Lactococcus lactis; conditions: membrane protein of strain Y113A; biotin-labelled nisin, HRP-streptavidin
Description: as §1, §2, §3

[8] = target: T1, His6-NisKex (NisK extracellular region) (Lactococcus lactis CV56, UniProt P42707 36-144); assay: SPR; BIACORE3000; His6-NisKex immobilised on a CM5 chip by amide coupling to 1000 RU; nisin in HBS-T as analyte, 260 to 8.125 μM in twofold dilution, 30 μl/min, 25°C; 1:1 (Langmuir) model with local fitted Rmax; conditions: both partners purified
T1 construct: source: E. coli (pET28a), purified
T1 sequence (looked up): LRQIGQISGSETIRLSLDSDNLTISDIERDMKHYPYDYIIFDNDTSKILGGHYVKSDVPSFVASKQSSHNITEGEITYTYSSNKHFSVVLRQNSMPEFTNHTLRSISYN

With “b-nisin: Nisin labeled with biotin, purified by High Performance Liquid Chromatography (ITSISLCTPGCKTGALMGCNMKTATCHCSIHVSK; ends and bridges not checked; also: labelled with biotin, site not given here)” the “binding to NisK on far-Western blot” value [1] was “labeled a membrane protein of about 51.5 kDa”, the “binding to NisK mutant on far-Western blot” value (“binding to NisK mutant” below) [2] was “did not show b-nisin binding bands” and the “binding to NisK mutant” value [3] was “did not show b-nisin binding bands”. For the same molecule, the “binding to NisK mutant” value [4] was “did not show b-nisin binding bands”, the “binding to NisK mutant” value [5] was “did not show b-nisin binding bands” and the “binding to NisK mutant” value [6] was “did not show b-nisin binding bands”. For the same molecule, the “binding to NisK mutant” value [7] was “did not show b-nisin binding bands”.

B1: nisin (peptide, UniProt P13068 24-57, looked up)
peptide: ITSISLCTPGCKTGALMGCNMKTATCHCSIHVSK
notes: also called signal peptide nisin; nisin A; source: purified from commercial nisin product (Yinxiang, Zhejiang, China)
With B1 the koff [8] was 1 s⁻¹ and the kon [8] was 65.2 M⁻¹ s⁻¹.
